In US9758492B2, “IDO inhibitors” (Bristol-Myers Squibb Company, priority 2013, dated 2017):

Biological target: IDO (Homo sapiens, UniProt P14902)
Assay: LLE_IDO_ABS_DR (IDO assay)
Settings: not given

IDO, sequence (P14902 whole entry): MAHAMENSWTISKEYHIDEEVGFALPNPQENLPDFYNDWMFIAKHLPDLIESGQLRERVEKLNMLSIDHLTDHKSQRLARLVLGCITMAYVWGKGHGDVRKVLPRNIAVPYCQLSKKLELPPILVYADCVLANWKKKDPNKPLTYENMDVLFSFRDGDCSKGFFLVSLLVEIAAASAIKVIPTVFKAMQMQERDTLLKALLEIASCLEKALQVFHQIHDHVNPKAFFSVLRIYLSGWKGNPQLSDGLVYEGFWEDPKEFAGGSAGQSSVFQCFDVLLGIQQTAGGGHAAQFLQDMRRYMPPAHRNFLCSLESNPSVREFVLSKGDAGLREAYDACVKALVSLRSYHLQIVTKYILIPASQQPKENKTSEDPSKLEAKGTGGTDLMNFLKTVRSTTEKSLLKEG

| Structure (SMILES) | IC50 |
| --- | --- |
| COCCN(Cc1ccc(Cl)cc1)c1ccc(-c2cc(F)ccc2C(=O)O)cc1NC(=O)Nc1ccc(C)cc1 [Example 193, 4′-((4-chlorobenzyl)(2-methoxyethyl)amino)-5-fluoro-3′-(3-(p-tolyl)ureido)-[1,1′-biphenyl]-2-carboxylic acid] | 0.03 µM |
| Cc1ccc(NC(=O)Nc2cc(-c3ccccc3C(=O)O)ccc2N(CCC(F)(F)F)Cc2ccc(Cl)cc2)cc1 [Example 14, 4′-((4-Chlorobenzyl)(3,3,3-trifluoropropyl)amino)-3′-(3-(p-tolyl)ureido)-[1,1′-biphenyl]-2-carboxylic acid] | 0.08 µM |
| CC(C)CN(Cc1ccccc1)c1ccc(-c2ccccc2-c2nnn[nH]2)cc1NC(=O)Nc1ccc(OC(F)(F)F)cc1 [Example 290, 1-(4-(Benzyl(isobutyl)amino)-2′-(1H-tetrazol-5-yl)-[1,1′-biphenyl]-3-yl)-3-(4-(trifluoromethoxy)phenyl)urea] | 0.03 µM |
| O=C(Nc1ccc(F)cc1F)Nc1cc(-c2ccccc2-c2nnn[nH]2)ccc1N(CCc1ccccc1)CCC(F)(F)F [Example 332, 1-(2,4-difluorophenyl)-3-(4-(phenethyl(3,3,3-trifluoropropyl)amino)-2′-(1H-tetrazol-5-yl)-[1,1′-biphenyl]-3-yl) urea] | 0.08 µM |
| Cc1ccc(NC(=O)Nc2cc(-c3ccccc3-c3nnn[nH]3)ccc2N2CC3CC2CN3Cc2ccccc2)cc1 (centres unmarked) [Example 317, 1-(4-(5-benzyl-2,5-diazabicyclo[2.2.1]heptan-2-yl)-2′-(1H-tetrazol-5-yl)-[1,1′-biphenyl]-3-yl)-3-(p-tolyl)urea] | 0.03 µM |
| Cc1ccc(NC(=O)Nc2cc(-c3cc(F)ccc3C(=O)O)ccc2N(CC(C)C)CC(C)C)cc1 [Example 126, 4′-(diisobutylamino)-5-fluoro-3′-(3-p-tolylureido)biphenyl-2-carboxylic acid] | 0.02 µM |
| Cc1ccc(NC(=O)Nc2cc(-c3ccccc3-c3nnn[nH]3)ccc2N(CCC(F)(F)F)Cc2ccccc2Cl)cc1 [Example 19, 1-(4-((2-Chlorobenzyl)(3,3,3-trifluoropropyl)amino)-2′-(1H-tetrazol-5-yl)-[1,1′-biphenyl]-3-yl)-3-(p-tolyl)urea] | 0.02 µM |
| Cc1ccc(NC(=O)Nc2cc(-c3cc(F)ccc3C(=O)O)cc(Cl)c2N(CC(C)C)CC(C)C)cc1 [Example 41, 3′-Chloro-4′-(diisobutylamino)-5-fluoro-5′-(3-p-tolylureido)biphenyl-2-carboxylic acid] | 0.00178 µM |

Biological target: T1, Human IDO1 (Homo sapiens, UniProt P14902)
T1 construct: expressed in transfected cells; host or cells: HEK293
Assay: IDO Kynurenine Assay with Human IDO1/HEK293 Cells
Type: cell-based
Settings: read-out: HEK human IDO-1 (IC50)
Procedure, shortened: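 HEK293 cells stably expressing human IDO1, in phenol red-free RPMI/10% FBS, exposed to compound for 20 h at 37 °C. Stopped with 0.2% TCA (50 °C, 30 min); kynurenine in supernatant detected with Ehrlich reagent, absorbance 490 nm.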

T1 sequence (P14902 whole entry): as above

| Structure (SMILES) | IC50 |
| --- | --- |
| COCCN(Cc1ccc(Cl)cc1)c1ccc(-c2cc(F)ccc2C(=O)O)cc1NC(=O)Nc1ccc(C)cc1 [Example 193, 4′-((4-chlorobenzyl)(2-methoxyethyl)amino)-5-fluoro-3′-(3-(p-tolyl)ureido)-[1,1′-biphenyl]-2-carboxylic acid] | 0.07 µM |
| Cc1ccc(NC(=O)Nc2cc(-c3ccccc3C(=O)O)ccc2N(CCC(F)(F)F)Cc2ccc(Cl)cc2)cc1 [Example 14, 4′-((4-Chlorobenzyl)(3,3,3-trifluoropropyl)amino)-3′-(3-(p-tolyl)ureido)-[1,1′-biphenyl]-2-carboxylic acid] | 0.1 µM |
| CC(C)CN(Cc1ccccc1)c1ccc(-c2ccccc2-c2nnn[nH]2)cc1NC(=O)Nc1ccc(OC(F)(F)F)cc1 [Example 290, 1-(4-(Benzyl(isobutyl)amino)-2′-(1H-tetrazol-5-yl)-[1,1′-biphenyl]-3-yl)-3-(4-(trifluoromethoxy)phenyl)urea] | 0.05 µM |
| O=C(Nc1ccc(F)cc1F)Nc1cc(-c2ccccc2-c2nnn[nH]2)ccc1N(CCc1ccccc1)CCC(F)(F)F [Example 332, 1-(2,4-difluorophenyl)-3-(4-(phenethyl(3,3,3-trifluoropropyl)amino)-2′-(1H-tetrazol-5-yl)-[1,1′-biphenyl]-3-yl) urea] | 0.11 µM |
| Cc1ccc(NC(=O)Nc2cc(-c3ccccc3-c3nnn[nH]3)ccc2N2CC3CC2CN3Cc2ccccc2)cc1 (centres unmarked) [Example 317, 1-(4-(5-benzyl-2,5-diazabicyclo[2.2.1]heptan-2-yl)-2′-(1H-tetrazol-5-yl)-[1,1′-biphenyl]-3-yl)-3-(p-tolyl)urea] | 0.05 µM |
| Cc1ccc(NC(=O)Nc2cc(-c3cc(F)ccc3C(=O)O)ccc2N(CC(C)C)CC(C)C)cc1 [Example 126, 4′-(diisobutylamino)-5-fluoro-3′-(3-p-tolylureido)biphenyl-2-carboxylic acid] | 0.01 µM |
| Cc1ccc(NC(=O)Nc2cc(-c3ccccc3-c3nnn[nH]3)ccc2N(CCC(F)(F)F)Cc2ccccc2Cl)cc1 [Example 19, 1-(4-((2-Chlorobenzyl)(3,3,3-trifluoropropyl)amino)-2′-(1H-tetrazol-5-yl)-[1,1′-biphenyl]-3-yl)-3-(p-tolyl)urea] | 0.04 µM |
| Cc1ccc(NC(=O)Nc2cc(-c3cc(F)ccc3C(=O)O)cc(Cl)c2N(CC(C)C)CC(C)C)cc1 [Example 41, 3′-Chloro-4′-(diisobutylamino)-5-fluoro-5′-(3-p-tolylureido)biphenyl-2-carboxylic acid] | 0.00631 µM |
| CC(C)CN(c1cc(F)c(-c2cc(F)ccc2C(=O)O)cc1NC(=O)Nc1ccc(C2CCCCC2)cc1)C1CCCCC1 [Example 523, 4′-(Cyclohexyl(isobutyl)amino)-5′-(3-(4-cyclohexylphenyl)ureido)-2′,5-difluoro-[1,1′-biphenyl]-2-carboxylic acid] | 5.52 µM |
| C=C(C)CN(c1ccc(-c2ccccc2-c2nnn[nH]2)cc1NC(=O)Nc1ccc(C)cc1)C1CCCCC1 [Example 462] | 0.00111 µM |
| Cc1ccc(NC(=O)Nc2cc(-c3ccccc3-c3nnn[nH]3)ccc2N(CC(C)C)[C@H]2CC[C@@H](C(F)(F)F)CC2)cc1 [Example 305, 1-(4-(isobutyl(4-(trifluoromethyl)cyclohexyl)amino)-2′-(1H-tetrazol-5-yl)-[1,1′-biphenyl]-3-yl)-3-(p-tolyl) urea] | 0.006 µM |
| Cc1ccc(NC(=O)Nc2cc(-c3ccccc3C(=O)O)c(F)cc2N(CC(C)C)CC(C)C)cc1 [Example 425] | 0.01 µM |
| CCOc1ccc(NC(=O)Nc2cc(-c3cccc(C)c3C(=O)O)ccc2N(CC(C)C)CC(C)C)cc1 [Example 545] | 0.06 µM |
| COC[C@H](C)N(CCCC(F)(F)F)c1ccc(-c2ccccc2-c2nnn[nH]2)cc1NC(=O)Nc1ccc(C)cc1 [Example 423] | 0.02 µM |
| Cc1ccc(NC(=O)Nc2cc(-c3cc(F)ccc3C(=O)O)ccc2N(C2CC2)C2CC2)cc1 [Example 541, 4′-(Dicyclopropylamino)-5-fluoro-3′-(3-(p-tolyl)ureido)-[1,1′-biphenyl]-2-carboxylic acid] | 3.43 µM |
| Cc1ccc(NC(=O)Nc2cc(-c3ccccc3C(=O)O)ccc2N(CCCC(F)(F)F)C2CCCCC2)cc1 [Example 416] | 0.1 µM |
| Cc1cc(NC(=O)Nc2cc(-c3cc(F)ccc3C(=O)O)ccc2N(CC(C)C)C2CCCCC2)no1 [Example 408] | 0.01 µM |
| Cc1ccc(NC(=O)Nc2cc(-c3ccccc3-c3nnn[nH]3)cc(F)c2N(CC(C)C)C2CCCCC2)cc1 [Example 433] | 0.00197 µM |
| Cc1ccc(NC(=O)Nc2cc(-c3cc(Cl)ccc3C(=O)O)ccc2N(CC(C)C)CC(C)C)cc1 [Example 493] | 0.12 µM |
| CCOc1ccc(NC(=O)Nc2cc(-c3ccccc3-c3nnn[nH]3)ccc2N(CC(C)C)CC(C)C)cc1 [Example 454] | 0.00235 µM |
| CC(C)CN(CC(C)C)c1ccc(-c2cccc(OC(F)(F)F)c2C(=O)O)cc1NC(=O)Nc1ccc(Cl)cc1F [Example 496] | 0.01 µM |
| Cc1ccc(NC(=O)Nc2cc(-c3ccccc3C(=O)O)ccc2N(CC(C)C)C2CCC(C(F)(F)F)CC2)cc1 (centres unmarked) [Example 307, 4′-(isobutyl(4-(trifluoromethyl)cyclohexyl)amino)-3′-(3-(p-tolyl)ureido)-[1,1′-biphenyl]-2-carboxylic acid] | 0.04 µM |
| CC(C)CN(CC(C)C)c1ccc(-c2cccc(OC(F)(F)F)c2C(=O)O)cc1NC(=O)Nc1ccc(C#N)nc1 [Example 501] | 0.32 µM |

| Structure (SMILES) | IC50 |
| --- | --- |
| CC(C)CN(CC(C)C)c1ccc(-c2ccc(Cl)cc2C(=O)O)cc1NC(=O)Nc1ccc(Cl)cc1F [Example 360, 4-Chloro-3′-(3-(4-chloro-2-fluorophenyl)ureido)-4′-(diisobutylamino)-[1,1′-biphenyl]-2-carboxylic acid] | 0.02 µM |
| Cc1ccc(NC(=O)Nc2cc(-c3cccc(C)c3C(=O)O)ccc2N(CC(C)C)CC(C)C)cc1 [Example 536, 4′-(Diisobutylamino)-3-methyl-3′-(3-(p-tolyl)ureido)-[1,1′-biphenyl]-2-carboxylic acid] | 0.07 µM |
| CC(C)CN(c1cc(F)c(-c2cc(F)ccc2C(=O)O)cc1NC(=O)Nc1ccc(OC(F)(F)F)cc1)C1CCCCC1 [Example 485] | 0.00575 µM |
| CC(C)CN(c1ccc(-c2cc(F)ccc2C(=O)O)cc1NC(=O)Nc1cc(C(F)(F)F)no1)C1CCCCC1 [Example 400] | 0.00535 µM |
| CC(C)CN(CC(C)C)c1ccc(-c2ccccc2-c2nnn[nH]2)cc1NC(=O)Nc1ccc(N(C)C)cc1 [Example 463] | 0.02 µM |
| CC(C)CN(c1ccc(-c2cc(F)ccc2C(=O)O)cc1NC(=O)Nc1cncnc1)C1CCCCC1 [Example 397] | 0.01 µM |
| COCCN(c1ccc(-c2ccccc2-c2nnn[nH]2)cc1NC(=O)Nc1ccc(Cl)cc1F)C1CCCCC1 [Example 452] | 0.000661 µM |
| CC(C)CN(c1cc(F)c(-c2cc(F)ccc2C(=O)O)cc1NC(=O)Nc1ccc(C#N)cc1)C1C[C@H]2CC[C@@H]1C2 (some centres unmarked) [Example 411] | 0.05 µM |
| CCC(CC)N(CC(C)C)c1ccc(-c2ccccc2-c2nnn[nH]2)cc1NC(=O)Nc1ccc(C)cc1 [Example 444] | 0.00321 µM |
| COCCN(c1ccc(-c2cc(F)ccc2C(=O)O)cc1NC(=O)Nc1ccc(Cl)cc1F)C1CCCCC1 [Example 451] | 0.00174 µM |
| Cc1ccc(C(=O)O)c(-c2ccc(N(CC(C)C)CC(C)C)c(NC(=O)Nc3ccc(F)cc3F)c2)c1 [Example 528, 3′-(3-(2,4-Difluorophenyl)ureido)-4′-(diisobutylamino)-5-methyl-[1,1′-biphenyl]-2-carboxylic acid] | 0.16 µM |
| CC(C)CN(c1c(F)cc(-c2cc(F)ccc2C(=O)O)cc1NC(=O)Nc1ccc(Cl)cc1F)C1CCCCC1 [Example 434] | 0.0037 µM |
| CC(C)CN(c1ccc(-c2cc(F)ccc2C(=O)O)cc1NC(=O)Nc1ccc2ncncc2c1)C1CCCCC1 [Example 405] | 1.23 µM |
| Cc1cnc(NC(=O)Nc2cc(-c3cc(F)ccc3C(=O)O)c(F)cc2N(CC(C)C)C2CCCCC2)cn1 [Example 525, 4′-(Cyclohexyl(isobutyl)amino)-2′,5-difluoro-5′-(3-(5-methylpyrazin-2-yl)ureido)-[1,1′-biphenyl]-2-carboxylic acid] | 0.09 µM |
| C=C(C)CN(c1ccc(-c2cc(F)ccc2C(=O)O)cc1NC(=O)Nc1ccc(C)cc1)C1CCCCC1 [Example 461] | 0.00424 µM |
| Cc1ccc(NC(=O)Nc2cc(-c3cc(F)ccc3C(=O)O)ccc2N(CCOC(C)C)CC(C)C)cc1 [Example 466] | 1.74 µM |
| Cc1ccc(NC(=O)Nc2cc(-c3ccccc3-c3nnn[nH]3)ccc2N(C2CC2)C2CC2)cc1 [Example 542] | 0.76 µM |
| CCOc1ccc(NC(=O)Nc2cc(-c3cc(F)ccc3C(=O)O)c(F)cc2N(CC(C)C)C2C[C@H]3CC[C@@H]2C3)cc1 (some centres unmarked) [Example 412] | 0.06 µM |
| Cc1ccc(NC(=O)Nc2cc(-c3ccccc3-c3nnn[nH]3)ccc2N(CC(C)(F)F)C2CCCCC2)cc1 [Example 356, 1-(4-(cyclohexyl(2,2-difluoropropyl)amino)-2′-(1H-tetrazol-5-yl)-[1,1′-biphenyl]-3-yl)-3-(p-tolyl)urea] | 0.00406 µM |
| C=C(C)CN(CCCC(F)(F)F)c1ccc(-c2ccccc2C(=O)O)cc1NC(=O)Nc1ccc(C)cc1 [Example 418] | 0.00463 µM |
| CC(C)CN(c1ccc(-c2cc(F)ccc2C(=O)O)cc1NC(=O)Nc1ccc2nccnc2c1)C1CCCCC1 [Example 406] | 0.00759 µM |
| Cc1ccc(NC(=O)Nc2cc(-c3cc(F)ccc3C(=O)O)ccc2N(CC(C)C)C2CCC(C(F)(F)F)CC2)cc1 (centres unmarked) [Example 306, 5-fluoro-4′-(isobutyl(4-(trifluoromethyl)cyclohexyl)amino)-3′-(3-(p-tolyl)ureido)-[1,1′-biphenyl]-2-carboxylic acid] | 0.04 µM |
